Here are results for 3 molecules from patent publication US6861524B2, “Acyl and sulfonyl derivatives of 6,9-disubstituted 2-(trans-1,4-diaminocyclohexyl)-purines and their use as antiproliferative agents” (Aventis Pharmaceuticals Inc., priority 2000, dated 2005).

Each structure is given as a SMILES string. Marks after values point to notes of the source that are not given here.

Data set [1] in a line: Plasma pharmacokinetics in mice after single intravenous cassette doses. The following applies: for Mean Conc. in plasma / concentration at 0.083 h / concentration at 0.25 h / concentration at 0.5 h / concentration at 1 h / concentration at 3 h / concentration at 6 h / concentration at 8 h / Mean concentration in plasma: mice; for concentration at 0.083 h / concentration at 0.25 h / concentration at 0.5 h / concentration at 1 h / concentration at 3 h / concentration at 6 h / concentration at 8 h / AUC(0-inf) / Cmax / half-life: male, Hsd:ICR (CD-1), mouse, plasma, 3 mg/kg; for concentration at 0.083 h / concentration at 0.25 h / concentration at 0.5 h / concentration at 1 h / concentration at 3 h / concentration at 6 h / concentration at 8 h: intravenous, Mean Conc. in plasma; for AUC(0-inf) / Cmax / half-life: iv; for AUC(0-inf): AUC0-∞; for Cmax: Cmax (highest measured value); for half-life: t1/2, λz; for Mean concentration in plasma: single 18 mg/kg intravenous cassette dose (Cassette #1).
Method: Male mice are given single intravenous cassette doses of CDK inhibitor compounds.
A single intravenous cassette dose (18 or 15 mg/kg free base) is administered. For each compound, this is equivalent to a dose of approx. 3 mg/kg free base. […] The dose is administered at a volume of 10 ml/kg (total volume of approximately 0.25 ml/animal).
Male mice (Hsd:ICR (CD-1® SD®), Harlan), each weighing approximately 20-30 g at the start of the study. […] Water is available ad libitum throughout the study.
A single cassette dose of 5-6 compounds is administered by bolus injection into the tail vein over a 10-15-second period. […] Whole blood (approximately 0.6 ml/sample) is obtained by cardiac puncture and transferred to 3 ml glass tubes containing 45 U sodium heparin.
Sample Processing: Plasma: Whole blood is centrifuged at approximately 3,200 rpm for 10 min at approximately 5° C. and the plasma (approx. 0.3 ml/sample) is transferred to chilled plastic vials and stored at approx. −70° C. until bioanalysis.
Sample Analysis: Concentrations of each test article in plasma are quantitated by a non-validated method based on LC/MS using the following protocol.
Samples are removed from the freezer, allowed to thaw at room temperature, and vortexed to insure complete homogenization prior to sample manipulation. Samples are then prepared according to the following scheme: • 1. transfer 48 μL of plasma (blank mouse sample) into a 12×75 mm test tube. • 2. add 12 μL of working standard to the blank plasma for standard curve preparation. • 3. […] Inject 25 μL on LC/MS. Chromatographic Conditions:
Data Analysis: Concentrations of Compounds in plasma of individual animals are determined by bioanalytics. […] Statistical analyses are limited to simple expressions of variation (mean and standard deviation). The plasma AUC (area-under-curve) is determined by the linear trapezoidal rule. […] All PK parameters are determined by noncompartmental methods using WinNonlin version 3.0 (Pharsight Corp).
The following information is based on a graph of the semi-log of the plasma concentration in ng/ml versus collection time in hours. • “Cmax” represents the maximum plasma concentration. • “t1/2” represents the half-life of the compound. • “AUC0-∞” represents the calculated area under the curve. • “AUC % Extrap(obs.)” represents the extrapolated area under the curve. • “Cls” is the clearance rate.

A short description of data set [2]: Red blood cell binding (RBC to plasma ratio), human whole blood. Format: in vitro ADME. The following applies: 30 minutes at 37° C., nominal 500 ng/ml. As for the experimental part:
Compounds, including one positive control, are assessed for red blood cell (RBC) uptake, using a modified procedure based on the protocol reported in Sun, J. X. S., et al. High-performance liquid chromatographic analysis, plasma protein binding and red blood cell partitioning of phenprobamate. Biopharmaceutics and Drug Disposition, 8 (1987) 341-351.
Briefly, RBC uptake is evaluated by comparison of the levels in spiked plasma (n=3) and plasma isolated from spiked whole blood (n=3). Compounds are incubated with human and mouse whole blood, respectively, for 30 minutes at 37° C. using a nominal concentration of 500 ng/ml. Following centrifugation, the plasma is removed and submitted for analysis. Each compound is also spiked into blank plasma at a nominal concentration of 500 ng/ml, and submitted for analysis. Levels in the two plasma samples (Cp′ and Cp in the equation below) and the blood hematocrit are used to determine the red blood cell to plasma ratio (Crbc/Cp). [formula] In equation 1, Cp′ is the level of drug in the spiked “blank” plasma, Cp is the level of drug in the plasma of spiked whole blood, and H is the hematocrit. The hematocrit values are determined as 0.4 for human whole blood and 0.41 for mouse whole blood. The samples are analyzed with ESI LC/MS, using positive ion detection with an internal standard.
The red blood cell to plasma ratio is determined for each compound using equation 1. Tables 6 and 7 summarize the respective mean Crbc/Cp values and standard deviations for mouse and human whole blood, respectively, in descending order based on the red blood cell to plasma ratio, where “*” denotes Positive Control, and “ND” denotes Not Determined. MDL 108552 is included as a positive control for red blood cell uptake.

[3] abbreviates: Cassette #2, single 18 mg/kg iv cassette dose (3 mg/kg/compound), 8 h.
[4] abbreviates: Cassette #2, single 18 mg/kg iv cassette dose (3 mg/kg/compound), 24 h.
[5] abbreviates: mouse plasma, iv Cassette #2, 3 mg/kg/compound (18 mg/kg total dose).
[6] abbreviates: mouse plasma, iv Cassette #3, 3 mg/kg/compound (15 mg/kg total dose).
Where [7] appears, read: mouse plasma, iv Cassette #4, 3 mg/kg/compound (15 mg/kg total dose).
Setting [8] is: 24 h, BLQ = below assay quantification limit (approx. 1 ng/ml).

For `CCOC(=O)c1ccc(NC(=O)N2CCC(Nc3nc(N[C@H]4CC[C@H](N)CC4)nc4c3ncn4C3CCCC3)CC2)cc1.Cl.Cl` [Compound 154, trans-4-[(1-{4-[2-(4-Amino-cyclohexylamino)-9-cyclopentyl-9H-purin-6-ylamino]-piperidine-1-yl}-methanoyl)-amino]-benzoic acid ethyl ester dihydrochloride], the “Mean Conc. in plasma” value in data set [1] (setting [3]) and in data set [1] (setting [4]) was “BLQ^a” in each case. Further, in data set [2], the “Mean Red Blood Cell to Plasma Ratio” value is listed as 4.1.
The AUC(0-inf) is total exposure, with the tail of the curve extrapolated. In general, Cmax refers to the peak of the concentration-time curve. Usually half-life stands for the time in which the quantity being followed falls by half. Consider `NC1CCC(Nc2nc(NCCCc3ccccc3)c3ncn(C4CCCC4)c3n2)CC1` (centres unmarked) [MDL 107167, reference compound], for which the concentration at 0.083 h in data set [1] (Cassette #2, single 18 mg/kg iv cassette dose (3 mg/kg/compound), 0.083 h) stood at 472 ng/mL; in data set [1] (Cassette #3, single 15 mg/kg iv cassette dose (3 mg/kg/compound), 0.083 h), 520 ± 69.3 ng/mL; in data set [1] (Cassette #4, single 15 mg/kg iv cassette dose (3 mg/kg/compound), 0.083 h), 567 ± 43.5 ng/mL. Moreover, the concentration at 0.25 h in data set [1] (Cassette #2, single 18 mg/kg iv cassette dose (3 mg/kg/compound), 0.25 h) amounted to 317 ng/mL; in data set [1] (Cassette #3, single 15 mg/kg iv cassette dose (3 mg/kg/compound), 0.25 h), 324 ± 32.3 ng/mL; in data set [1] (Cassette #4, single 15 mg/kg iv cassette dose (3 mg/kg/compound), 0.25 h), 491 ± 32.3 ng/mL. Moreover, the concentration at 0.5 h in data set [1] (Cassette #2, single 18 mg/kg iv cassette dose (3 mg/kg/compound), 0.5 h) turned out to be 266 ng/mL; in data set [1] (Cassette #3, single 15 mg/kg iv cassette dose (3 mg/kg/compound), 0.5 h), 209 ± 24.1 ng/mL; in data set [1] (Cassette #4, single 15 mg/kg iv cassette dose (3 mg/kg/compound), 0.5 h), 325 ± 13.6 ng/mL. The concentration at 1 h in data set [1] (Cassette #2, single 18 mg/kg iv cassette dose (3 mg/kg/compound), 1 h) is 133 ng/mL; in data set [1] (Cassette #3, single 15 mg/kg iv cassette dose (3 mg/kg/compound), 1 h), 108 ± 29.3 ng/mL; in data set [1] (Cassette #4, single 15 mg/kg iv cassette dose (3 mg/kg/compound), 1 h), 145 ± 9.5 ng/mL. The concentration at 3 h came out at 16.1 ± 1.4 ng/mL in data set [1] (Cassette #2, single 18 mg/kg iv cassette dose (3 mg/kg/compound), 3 h); 23.5 ± 6.4 ng/mL in data set [1] (Cassette #3, single 15 mg/kg iv cassette dose (3 mg/kg/compound), 3 h); 35.3 ± 8.3 ng/mL in data set [1] (Cassette #4, single 15 mg/kg iv cassette dose (3 mg/kg/compound), 3 h). Also, the concentration at 6 h in data set [1] (Cassette #2, single 18 mg/kg iv cassette dose (3 mg/kg/compound), 6 h) came to 2.8 ± 0.4 ng/mL; in data set [1] (Cassette #3, single 15 mg/kg iv cassette dose (3 mg/kg/compound), 6 h) it was 5 ± 0.5 ng/mL; in data set [1] (Cassette #4, single 15 mg/kg iv cassette dose (3 mg/kg/compound), 6 h), 10.1 ± 3 ng/mL. The concentration at 8 h in data set [1] (setting [3]) amounted to 1.6 ± 0.2 ng/mL; in data set [1] (Cassette #3, single 15 mg/kg iv cassette dose (3 mg/kg/compound), 8 h), 2.4 ± 1.7 ng/mL; in data set [1] (Cassette #4, single 15 mg/kg iv cassette dose (3 mg/kg/compound), 8 h), 3.7 ± 0.7 ng/mL. Moreover, the AUC(0-inf) in data set [1] (setting [5]) is 467 ng·h/mL; in data set [1] (setting [6]), 452 ng·h/mL; in data set [1] (setting [7]), 627 ng·h/mL. For the same molecule, the peak concentration (Cmax) in data set [1] (setting [5]) was 472 ng/mL; in data set [1] (setting [6]), 520 ng/mL; in data set [1] (setting [7]), 567 ng/mL. Also, the half-life in data set [1] (setting [5]), in data set [1] (setting [6]) and in data set [1] (setting [7]) was 1.5 h each time. Moreover, the “Mean Conc. in plasma” value in data set [1] (setting [4]) is “BLQ”; in data set [1] (Cassette #3, single 15 mg/kg iv cassette dose (3 mg/kg/compound), 24 h) it was “BLQ”; in data set [1] (Cassette #4, single 15 mg/kg iv cassette dose (3 mg/kg/compound), 24 h), “BLQ”. In addition, in data set [1] (setting [8]), the “Mean concentration in plasma” value is listed as “BLQ”. In data set [1] (mouse plasma, iv Cassette #1, 3 mg/kg/compound (18 mg/kg total dose)), the “AUC0-∞” value was 532 ng·h/mL.
For the molecule `COC(=O)c1ccc(OC(=O)N2CCC(Nc3nc(N[C@H]4CC[C@H](N)CC4)nc4c3ncn4C3CCCC3)CC2)cc1.Cl.Cl` [Compound 83, trans-4-[2-(4-Amino-cyclohexylamino)-9-cyclopentyl-9H-purin-6-ylamino]-piperidine-1-carboxylic acid 4-methoxycarbonyl-phenyl ester dihydrochloride], the “Mean concentration in plasma” value in data set [1] (0.083 h) was 1515.7 ± 611.8 ng/mL; in data set [1] (0.25 h) it was 217.9 ± 92.8 ng/mL; in data set [1] (0.5 h), 61.3 ± 32.9 ng/mL; in data set [1] (1 h), 14.1^a ng/ml; in data set [1] (3 h), 4.1^a ng/ml; in data set [1] (6 h), 1.6^a ng/ml. Moreover, the “Mean concentration in plasma” value is 6.3^a ng/ml in data set [1] (8 h) and “BLQ” in data set [1] (setting [8]). In data set [2], the “Mean Red Blood Cell to Plasma Ratio” value is reported as 4.1.
